# Assay results: PMC9427252, “Study on the Absorption of Arsenic Species in Realgar Based on the Form and Valence” (Evidence-based Complementary and Alternative Medicine : eCAM, 2022)
# Where two headings read alike, the source gives them in different places.
# How the values were obtained:
# Caco-2 cells = conditions: A to B, realgar artificial intestinal dissolved solution
# [1] = system: duodenum, jejunum, and ileum
# [2] = rat plasma, oral 0.1 g/kg realgar
structure (smiles),measurement,setting,value
"O=[As](O)(O)O [AsV, Arsenate]",AUC(0-24),[2],47.310 ng·h/mL
same,AUC(0-∞),[2],47.687 ng·h/mL
same,Cmax,[2],21.626 ng/L
same,MRT(0-∞),[2],2.790 h
same,Tmax,[2],23.6 min
same,t1/2,[2],1.775 h
same,Cumulative transport amount,Caco-2 cells; 30 min,0.23 ± 0.07 ng
same,Cumulative transport amount,Caco-2 cells; 60 min,0.41 ± 0.06 ng
same,Cumulative transport amount,Caco-2 cells; 90 min,1.01 ± 0.16 ng
same,Cumulative transport amount,Caco-2 cells; 120 min,0.84 ± 0.02 ng
same,Cumulative transport amount,Caco-2 cells; 180 min,1.20 ± 0.15 ng
same,Cout/Cin,[1]; duodenum and jejunum,> 1
same,Cout/Cin,[1]; ileum,< 1
same,Cout/Cin,"[1]; realgar intestinal perfusate, duodenum, time 15",3.14 ± 0.81
same,Cout/Cin,"[1]; realgar intestinal perfusate, duodenum, time 30",3.16 ± 0.91
same,Cout/Cin,"[1]; realgar intestinal perfusate, duodenum, time 45",3.01 ± 0.96
same,Cout/Cin,"[1]; realgar intestinal perfusate, duodenum, time 60",3.20 ± 1.04
same,Cout/Cin,"[1]; realgar intestinal perfusate, duodenum, time 75",3.17 ± 0.86
same,Cout/Cin,"[1]; realgar intestinal perfusate, ileum, time 15",0.78 ± 0.11
same,Cout/Cin,"[1]; realgar intestinal perfusate, ileum, time 30",0.77 ± 0.10
same,Cout/Cin,"[1]; realgar intestinal perfusate, ileum, time 45",0.76 ± 0.12
same,Cout/Cin,"[1]; realgar intestinal perfusate, ileum, time 60",0.78 ± 0.11
same,Cout/Cin,"[1]; realgar intestinal perfusate, ileum, time 75",0.80 ± 0.13
same,Cout/Cin,"[1]; realgar intestinal perfusate, jejunum, time 15",1.54 ± 0.46
same,Cout/Cin,"[1]; realgar intestinal perfusate, jejunum, time 30",1.46 ± 0.39
same,Cout/Cin,"[1]; realgar intestinal perfusate, jejunum, time 45",1.50 ± 0.28
same,Cout/Cin,"[1]; realgar intestinal perfusate, jejunum, time 60",1.34 ± 0.25
same,Cout/Cin,"[1]; realgar intestinal perfusate, jejunum, time 75",1.28 ± 0.24
"O[As](O)O [AsIII, Arsenite]",MRT(0-∞),"rat, in vivo, po, 0.1 g/kg",9.649 h
